The source of these data is US20080008707A1, “Denatured collagen peptides and uses thereof” (Cell-Matrix, Inc., priority 2006, published 2008).

Marks after values point to notes of the source that are not given here. Square brackets hold non-standard residues; d marks the D form. Ends that are not written are not given here. Hyp = O=C(O)[C@@H]1C[C@@H](O)CN1

In assay [1] the test system is HUI77 binding to denatured collagen IV. The experiment in a line: Competition ELISA: synthetic peptides blocking HUI77 binding to heat denatured collagen IV. The arrangement: species or system human. The procedure: (§1) The ELISA was conducted as follows: wells of a 96-well microtiter plate (Immulon, 4 HBX flat-bottomed, Thermo Electron Corporation, Waltham, Mass.) were coated with 100 μL/well of dn-collagen IV at 10 μg/mL in Phosphate Buffered Saline (PBS) overnight at 4° C. The plate was washed 3 times (3×) with PBS containing 0.05% (v/v) Tween-20 (PBST) using an automated plate washer.
(§2) The plate was blocked by adding 300 μL/well of 1% BSA (w/v) in PBS for 1 hour at 25° C. followed by washing 3× in PBST as above.
(§3) Solutions of D93 or HUI77 were prepared with various concentrations of peptide or antibody inhibitor and incubate for 15 minutes. D93 or HUI77 was prepared at 200 ng/mL in 1% BSA/PBS.
(§4) For antibody blocking studies using synthetic peptides: peptide inhibitor stock solutions were prepared at 2 mM, 0.2 mM, 0.02 mM, and 0.002 mM in 1% BSA/PBS. 500 μL of a 2 mM peptide solution in 1% BSA/PBS was prepared and diluted 1:10 in 500 μL a total of three times to make peptide inhibitor concentrations.
(§5) 200 μL of D93 or HUI77 at 200 ng/mL solution was combined with 200 μL of peptide or antibody inhibitor solution and incubated for 15 minutes at room temperature.
(§6) D93 or HUI77 with various concentrations of inhibitors (2 mM, 0.2 mM, 0.02 mM, and 0.002 mM) were added to microplate wells and incubated for 1 hour at 25° C. The plate was washed 3× in PBST as above.
(§7) To each microtiter plate well, 100 μL of diluted anti-human IgG or anti-mouse IgM conjugated to horseradish peroxidase (HRP) in PBST was added and incubated for one hour at 25° C.: (a) for D93: Goat anti-human IgG-HRP (Jackson ImmunoResearch, Catalog No. 109-035-088) was used at 1:20,000 and (b) for HUI77: Goat anti-mouse IgM-HRP was used at 1:4,000. Plates were washed 3× in PBST as above.
(§8) Tetramethylbenzidine (TMB) substrate (100 μL; Pierce Chemicals)) was added to wells and the plates were allowed to develop at room temperature for 15 minutes in the dark. Substrate development was stopped by adding 50 μL/well of 2N H2SO4. The microtiter […] plates were read at 450 nm within five minutes of adding the H2SO4. Reactivity was measured with a microplate reader (Molecular Devices, Sunnyvale, Calif.) at a wavelength of 450 nm and analyzed using SOFTMax® PRO4.0 (Molecular Devices). All samples were tested in triplicate.
(§9) Individual peptides with amino acid substitutions and deletions were also synthesized based on the primary and secondary peptide arrays. […] The inhibitory activity of the individual peptides was tested by ELISA as previously described to measure binding of D93 or HUI77 to denatured collagen where peptides and antibodies were prepared at a 2× concentration and pre-incubated for 15 minutes prior to adding to microtiter plates coated with dn-collagen.
(§10) 96-well plates were coated with 100 μL/well of denatured (dn) collagen IV at 10 μg/mL in phosphate buffered saline (PBS) overnight at 4° C. followed by washing the plates in an automated plate washer 3 times in PBS containing 0.05% (v/v) Tween-20 (PBST). Non-specific binding was prevented by blocking the wells by adding 300 μL/well of 1% bovine serum albumin (BSA) (w/v) in PBS for 1 hour (hr) at 25° C. The plates were washed as above.
(§11) Solutions of D93 and HUI77 antibodies were prepared with various concentrations of inhibitor and incubated for 15 minutes. Briefly, 20 mLs of D93 or HUI77 were prepared at 200 ng/mL in 1% BSA/PBS. Solutions of peptide inhibitors (2 mM, 0.2 mM, […]) were prepared in 1% BSA/PBS. Equal volumes of antibodies and peptide inhibitors were combined: 200 μL of D93 or HUI77 (200 ng/mL solution) with 200 μL of each peptide solution.
(§12) 100 μL/well of D93 or HUI77 at 100 ng/mL with various concentrations of inhibitors were added to the wells in triplicate and incubated for 1 hour at 25° C. The plates were washed as described above.
(§13) 100 μL/well of secondary horseradish peroxidase (HRP)-conjugated antibody in PBST was added to each well and incubated for 1 hour (hr) at 25° C. […]

Assay [2] relates to D93 binding to human denatured-collagen IV. In words: Competition ELISA: synthetic peptides blocking D93 binding to heat denatured collagen IV. The procedure: as §1, §2, §3, §4, §5, §6, §7, §8, §9, §10, §11, §12, §13
On the technique in general: An ELISA detects its analyte on a solid surface through an enzyme-linked reagent.

[3] abbreviates: peptide inhibitor concentration 10 μM, average of two studies.
Where [4] appears, read: peptide inhibitor concentration 100 μM, average of two studies.
[5] abbreviates: peptide inhibitor concentration 1000 μM, asterisk (*): data from a separate assay.
Where [6] appears, read: peptide inhibitor concentration 1000 μM, average of two studies.
Setting [7] is: peptide inhibitor concentration 1 μM, average of two studies, vs 1% BSA/PBS alone.
The mark [8] stands for this setting: peptide inhibitor concentration 10 μM, average of two studies, vs 1% BSA/PBS alone.
The mark [9] stands for this setting: peptide inhibitor concentration 100 μM, average of two studies, vs 1% BSA/PBS alone.
Setting [10] is: peptide inhibitor concentration 1000 μM, average of two studies, vs 1% BSA/PBS alone.
The mark [11] stands for this setting: peptide inhibitor concentration 100 μM, asterisk (*): data from a separate assay.

In the case of “CTWPRHHTTDALL [SEQ ID NO: 39, reference compound]”, the “% INHIBITION OF BINDING OF HUI77 TO DENATURED COLLAGEN IV” value in assay [1] (setting [3]) was determined as 6.5%; in assay [1] (setting [4]), 6.5%; in assay [1] (setting [5]) it was 11.1%; in assay [1] (setting [6]), 6.5%. Also, the “% INHIBITION OF BINDING OF D93 TO HUMAN DENATURED-COLLAGEN IV” value in assay [2] (setting [7]) is 4.5%; in assay [2] (setting [8]), 1%; in assay [2] (setting [9]), 0%; in assay [2] (setting [5]) it was 4.9%; in assay [2] (setting [10]) it was 3.5%.

Regarding “F-Hyp-G-P-Hyp-G-P-D-G-L-P-G-S-M-G-P-Hyp-G (F[Hyp]GP[Hyp]GPDGLPGSMGP[Hyp]G) [SEQ ID NO: 36]”, the results for the “% INHIBITION OF BINDING OF HUI77 TO DENATURED COLLAGEN IV” value in assay [1] (setting [3]), in assay [1] (setting [4]) and in assay [1] (setting [6]) were 4.5%, 9% and 62%, respectively. Besides, the “% INHIBITION OF BINDING OF D93 TO HUMAN DENATURED-COLLAGEN IV” value in assay [2] (setting [7]) was 11%; in assay [2] (setting [8]), 43%; in assay [2] (setting [9]) it was 89.5%; in assay [2] (setting [10]), 93.5%.

Take G-P-Hyp-G (GP[Hyp]G) [SEQ ID NO: 34]: the “% INHIBITION OF BINDING OF HUI77 TO DENATURED COLLAGEN IV” value in assay [1] (setting [3]) is reported as 6.5%; in assay [1] (setting [4]), 9%; in assay [1] (setting [6]) it was 14%. The “% INHIBITION OF BINDING OF D93 TO HUMAN DENATURED-COLLAGEN IV” value in assay [2] (setting [7]) was found to be 9.5%; in assay [2] (setting [8]) it was 6.5%; in assay [2] (setting [9]), 11%; in assay [2] (setting [10]) it was 52%.

In the case of “G-P-Hyp-G-P-Hyp-G-P-Y (GP[Hyp]GP[Hyp]GPY) [SEQ ID NO: 30]”, the “% INHIBITION OF BINDING OF HUI77 TO DENATURED COLLAGEN IV” value in assay [1] (setting [3]) is on record as 8.5%; in assay [1] (setting [11]), 0%; in assay [1] (setting [4]), 12%; in assay [1] (setting [5]) it was 63%; in assay [1] (setting [6]), 78%. Also, the “% INHIBITION OF BINDING OF D93 TO HUMAN DENATURED-COLLAGEN IV” value in assay [2] (setting [7]) is 33%; in assay [2] (peptide inhibitor concentration 10 μM, asterisk (*): data from a separate assay), 79.9* %; in assay [2] (setting [8]) it was 82.5, %; in assay [2] (setting [11]) it was 90.3%; in assay [2] (setting [9]), 94%; in assay [2] (setting [10]), 94%.

With GPPG [SEQ ID NO: 35], the “% INHIBITION OF BINDING OF HUI77 TO DENATURED COLLAGEN IV” value in assay [1] (setting [3]) is on record as 2.5%; in assay [1] (setting [4]), 8%; in assay [1] (setting [6]), 3.5%. For the same substance, the “% INHIBITION OF BINDING OF D93 TO HUMAN DENATURED-COLLAGEN IV” value is on record as 7% in assay [2] (setting [7]), 6% in assay [2] (setting [8]), 3.5% in assay [2] (setting [9]) and 7.5% in assay [2] (setting [10]).

On to “GPPGPPG (GPXGPXG; MOD_RES (3) Hydroxyproline; MOD_RES (6) Hydroxyproline) [SEQ ID NO: 32]”, for which the “% INHIBITION OF BINDING OF HUI77 TO DENATURED COLLAGEN IV” value in assay [1] (peptide inhibitor concentration 10 μM, average of two studies, listed as 15 (32), 10 µM) was found to be 6%; in assay [1] (peptide inhibitor concentration 100 μM, average of two studies, listed as 15 (32), 100 µM) it was 7.5%; in assay [1] (peptide inhibitor concentration 1000 μM, average of two studies, listed as 15 (32), 1000 µM), 77%. The “% INHIBITION OF BINDING OF D93 TO HUMAN DENATURED-COLLAGEN IV” value in assay [2] (peptide inhibitor concentration 1 μM, average of two studies, vs 1% BSA/PBS alone, listed as 15 (32), 1 µM) amounted to 8%; in assay [2] (peptide inhibitor concentration 10 μM, average of two studies, vs 1% BSA/PBS alone, listed as 15 (32), 10 µM), 17%; in assay [2] (peptide inhibitor concentration 100 μM, average of two studies, vs 1% BSA/PBS alone, listed as 15 (32), 100 µM), 64%; in assay [2] (peptide inhibitor concentration 1000 μM, average of two studies, vs 1% BSA/PBS alone, listed as 15 (32), 1000 µM), 92.5%.

On to GPPGPPG [SEQ ID NO: 33], for which the “% INHIBITION OF BINDING OF HUI77 TO DENATURED COLLAGEN IV” value in assay [1] (peptide inhibitor concentration 10 μM, average of two studies, listed as 23 (33), 10 µM) is recorded as 1.5%; in assay [1] (peptide inhibitor concentration 100 μM, average of two studies, listed as 23 (33), 100 µM) it was 2%; in assay [1] (peptide inhibitor concentration 1000 μM, average of two studies, listed as 23 (33), 1000 µM), 1%. Besides, the “% INHIBITION OF BINDING OF D93 TO HUMAN DENATURED-COLLAGEN IV” value turned out to be 5% in assay [2] (peptide inhibitor concentration 1 μM, average of two studies, vs 1% BSA/PBS alone, listed as 23 (33), 1 µM); 4.5% in assay [2] (peptide inhibitor concentration 10 μM, average of two studies, vs 1% BSA/PBS alone, listed as 23 (33), 10 µM); 1.5% in assay [2] (peptide inhibitor concentration 100 μM, average of two studies, vs 1% BSA/PBS alone, listed as 23 (33), 100 µM); 6.5% in assay [2] (peptide inhibitor concentration 1000 μM, average of two studies, vs 1% BSA/PBS alone, listed as 23 (33), 1000 µM).

Consider “GPPGPPGP (GPXGPXGP; MOD_RES (3) Hydroxyproline; MOD_RES (6) Hydroxyproline) [SEQ ID NO: 31]”, for which the “% INHIBITION OF BINDING OF HUI77 TO DENATURED COLLAGEN IV” value is 7.5% in assay [1] (setting [3]), 12% in assay [1] (setting [4]) and 44% in assay [1] (setting [6]). Besides, the “% INHIBITION OF BINDING OF D93 TO HUMAN DENATURED-COLLAGEN IV” value worked out at 9.5% in assay [2] (setting [7]), 21% in assay [2] (setting [8]), 77% in assay [2] (setting [9]) and 92.5% in assay [2] (setting [10]).

“Hyp-G-A-K-G-L-P-G-P-Hyp-G-P-Hyp-G-P-Y [SEQ ID NO: 2]”: the “% INHIBITION OF BINDING OF HUI77 TO DENATURED COLLAGEN IV” value is on record as 7.5% in assay [1] (setting [3]); 18% in assay [1] (setting [4]); 86% in assay [1] (peptide inhibitor concentration 1000 μM, average of two studies, 1000 µM); 86.5% in assay [1] (peptide inhibitor concentration 1000 μM, average of two studies, listed as 12 (2), 1000 µM). The “% INHIBITION OF BINDING OF D93 TO HUMAN DENATURED-COLLAGEN IV” value was 30% in assay [2] (setting [7]), 81% in assay [2] (setting [8]), 93.5% in assay [2] (setting [9]) and 93.5% in assay [2] (setting [10]).
